# Measurements from patent US9107415B2, “2-(substituted-phenyl)-cyclopentane-1,3-dione compounds, and derivatives thereof” (Syngenta Limited, priority 2011, dated 2015).
# Legend:
# Format in all cases: in vivo
# Avena fatua (AVEFA) [1] = test: Biological Example 1 glasshouse screen, pre-emergence herbicidal activity; conditions: 312 h, application rate 250 g/ha, evaluated after 13 days, read-out: AVEFA percentage phytotoxicity
# Procedure: (§1) Seeds of a variety of test species were sown in standard soil in pots. After cultivation for one day (pre-emergence) or after 8 days cultivation (post-emergence) under controlled conditions in a glasshouse (at 24/16°C., day/night; 14 hours light; 65% humidity), the plants were sprayed with an aqueous spray solution derived from the formulation of the “technical”(i.e. unformulated) active ingredient in acetone/water (50:50) solution containing 0.5% Tween 20 (polyoxyethylene sorbitan monolaurate, CAS Registry Number 9005-64-5). The test plants were then grown in a glasshouse under controlled conditions in a glasshouse (at 24/16°C., day/night; 14 hours light; 65% humidity) and watered twice daily. After 13 days for pre- or post-emergence, the test was evaluated visually, and an assessed percentage phytotoxicity score given for each herbicidal application on each plant/weed species (with 100%=total damage to plant; 0%=no damage to plant).
# (§2) Test plants: Lolium perenne (LOLPE), Alopecurus myosuroides (ALOMY), Echinochloa crus-galli (ECHCG), and Avena fatua (AVEFA). All four of these are grassy monocotyledonous weeds.
# Lolium perenne (LOLPE) [2] = test: as above; conditions: 312 h, application rate 250 g/ha, evaluated after 13 days, read-out: LOLPE percentage phytotoxicity
# Procedure: as §1, §2
# [3] = system: Alopecurus myosuroides (ALOMY); test: as above; conditions: 312 h, application rate 250 g/ha, evaluated after 13 days, read-out: ALOMY percentage phytotoxicity
# Procedure: as §1
# (§3) Test plants: Alopecurus myosuroides (ALOMY), Setaria faberi (SETFA), Echinochloa crus-galli (ECHCG), Solanum nigrum (SOLNI), Amaranthus retroflexus (AMARE) and Ipomoea hederacea (IPOHE). ALOMY, SETFA and ECHCG are grassy monocotyledonous weeds. SOLNI, AMARE and IPOHE are dicotyledonous (broadleaved) weeds.
# as §2
# [4] = system: Echinochloa crus-galli (ECHCG); test: as above; conditions: 312 h, application rate 250 g/ha, evaluated after 13 days, read-out: ECHCG percentage phytotoxicity
# Procedure: as §1, §3, §2
# [5] = system: Avena fatua, wild oats (AVEFA); test: Biological Example 3 glasshouse screen, post-emergence herbicidal activity; conditions: 360 h, application rate 30 g/ha, 15 DAA, no safener, read-out: AVEFA percentage phytotoxicity
# Procedure: (§4) Test Method: Seeds of a variety of test species are sown in standard soil in pots. After cultivation for one day (pre-emergence) or after 12 days cultivation (post-emergence) under controlled conditions in a glasshouse (warm climate species at 24/18°C., cool climate species at 20/16°C., both at day/night; 16 hours light; 65% humidity), the plants are sprayed with an aqueous spray solution derived from the formulation of the “technical”(i.e. unformulated) active ingredient dissolved in acetone plus IF50, at a 1:20 ratio of “technical”active ingredient to IF50. The IF50 contains about 10.56 weight % Emulsogen EL™(castor oil ethoxylate, CAS Registry number 61791-12-6), about 42.22 weight % N-methylpyrrolidone, and about 42.22 weight % DPG-Monoethyl ether (dipropylene glycol mono-ethyl ether). The adjuvant X-77 (a mixture of alkyl aryl polyoxyethylene glycols and free fatty acids in isopropanol, CAS Registry number 11097-66-8) is added to the aqueous spray solution to form a 0.2% v/v solution, before spraying onto the plants.
# (§5) The test plants are then grown in a glasshouse under controlled conditions in a glasshouse (at 24/18°C. or 20/16°C., day/night; 16 hours light; 65% humidity) and watered twice daily. After 15 days after application of the herbicide (15 DAA) (for post-emergence), and after 20 DAA (for pre-emergence), the test is evaluated visually, and an assessed percentage phytotoxicity score is given for each herbicidal application on each plant/weed species (with 100%=total damage to plant; 0%=no damage to plant). […]
# [6] = system: Echinochloa crus galli, barnyardgrass (ECHCG); test: as above; conditions: 360 h, application rate 30 g/ha, 15 DAA, no safener, read-out: ECHCG percentage phytotoxicity
# Procedure: as §4, §5
# [7] = system: Lolium perenne, perennial ryegrass (LOLPE); test: as above; conditions: 360 h, application rate 30 g/ha, 15 DAA, no safener, read-out: LOLPE percentage phytotoxicity
# Procedure: as §4, §5
# [8] = system: Alopecurus myosuroides, blackgrass (ALOMY); test: as above; conditions: 360 h, application rate 30 g/ha, 15 DAA, no safener, read-out: ALOMY percentage phytotoxicity
# Procedure: as §4, §5
# Avena fatua (AVEFA) [9] = test: Biological Example 1 glasshouse screen, post-emergence herbicidal activity; conditions: 312 h, application rate 250 g/ha, evaluated after 13 days, read-out: AVEFA percentage phytotoxicity
# Procedure: as §1, §2
# Lolium perenne (LOLPE) [10] = test: as above; conditions: 312 h, application rate 250 g/ha, evaluated after 13 days, read-out: LOLPE percentage phytotoxicity
# Procedure: as §1, §2
# [11] = system: Alopecurus myosuroides (ALOMY); test: as above; conditions: 312 h, application rate 250 g/ha, evaluated after 13 days, read-out: ALOMY percentage phytotoxicity
# Procedure: as §1, §3, §2
# [12] = system: Echinochloa crus-galli (ECHCG); test: as above; conditions: 312 h, application rate 250 g/ha, evaluated after 13 days, read-out: ECHCG percentage phytotoxicity
# Procedure: as §1, §3, §2
# [13] = system: Triticum aestivum, wheat (TRZAW); test: Biological Example 3 glasshouse screen, post-emergence, phytotoxicity on wheat; conditions: 360 h, application rate 30 g/ha, 15 DAA, no safener, read-out: TRZAW percentage phytotoxicity
# Procedure: as §4
# The test plants are then grown in a glasshouse under controlled conditions in a glasshouse (at 24/18°C. or 20/16°C., day/night; 16 hours light; 65% humidity) and watered twice daily. After 15 days after application of the herbicide (15 DAA) (for post-emergence), and after 20 DAA (for pre-emergence), the test is evaluated visually, and an assessed percentage phytotoxicity score is given for each herbicidal application on each plant/weed species (with 100%=total damage to plant; 0%=no damage to plant).
# These give an approximate indication of the level of selectivity on wheat for these tested compounds, when a herbicide safener such as cloquintocet-mexyl is not used: […]
# Avena fatua (AVEFA) [14] = test: Biological Example 2 post-emergence herbicidal activity (comparative data)
# Procedure: as §1
# (§6) Comparative herbicidal data are given for certain exemplified compounds with 4-(prop-1-ynyl)-2,6-dimethylphenyl or 4-(chloroethynyl)-2,6-dimethylphenyl headgroups, compared to the corresponding comparative compounds with 4-ethynyl-2,6-dimethylphenyl headgroups, as follows.
# (§7) Except where specified otherwise, the glasshouse screen for herbicidal activity is substantially the same as that presented in Biological Example 1 hereinabove. The weed abbreviations are as defined in Biological Example 1.
# [15] = system: Alopecurus myosuroides (ALOMY); test: as above; conditions: 312 h, read-out: ALOMY percentage phytotoxicity
# Procedure: as §1, §6, §7
# [16] = system: Echinochloa crus-galli (ECHCG); test: as above; conditions: 312 h, read-out: ECHCG percentage phytotoxicity
# Procedure: as §1, §6, §7
# Lolium perenne (LOLPE) [17] = test: as above
# Procedure: as §1, §6, §7
structure (smiles),measurement,setting,value
"CC#Cc1cc(C)c(C2=C(O)CC(CC3CCOCC3)C2=O)c(C)c1 (stereo not drawn) [Compound A-4, 2-(2,6-Dimethyl-4-prop-1-ynylphenyl)-4-(tetrahydropyran-4-ylmethyl)cyclopentane-1,3-dione]",pest or weed control at 250 g/ha,Avena fatua (AVEFA) [1],70%
same,pest or weed control at 250 g/ha,Lolium perenne (LOLPE) [2],100%
same,pest or weed control at 250 g/ha,[3],100%
same,pest or weed control at 250 g/ha,[4],100%
same,pest or weed control at 30 g/ha,[5],80%
same,pest or weed control at 30 g/ha,[6],100%
same,pest or weed control at 30 g/ha,[7],100%
same,pest or weed control at 30 g/ha,[8],100%
same,pest or weed control at 250 g/ha,Avena fatua (AVEFA) [9],100%
same,pest or weed control at 250 g/ha,Lolium perenne (LOLPE) [10],100%
same,pest or weed control at 250 g/ha,[11],90%
same,pest or weed control at 250 g/ha,[12],100%
same,pest or weed control at 30 g/ha,[13],80%
same,AVEFA percentage phytotoxicity,Avena fatua (AVEFA) [14]; 15.625 g/ha application rate,100%
same,AVEFA percentage phytotoxicity,Avena fatua (AVEFA) [14]; 62.5 g/ha application rate,100%
same,pest or weed control at 15.625 g/ha,[15]; 15.625 g/ha application rate,70%
same,pest or weed control at 62.5 g/ha,[15]; 62.5 g/ha application rate,90%
same,pest or weed control at 15.625 g/ha,[16]; 15.625 g/ha application rate,100%
same,pest or weed control at 62.5 g/ha,[16]; 62.5 g/ha application rate,100%
same,LOLPE percentage phytotoxicity,Lolium perenne (LOLPE) [17]; 15.625 g/ha application rate,100%
same,LOLPE percentage phytotoxicity,Lolium perenne (LOLPE) [17]; 62.5 g/ha application rate,100%
